Reference: US11504364B2, “Inhibitors of fibroblast activation protein” (Praxis Biotech LLC, priority 2018, dated 2022)

Experiments:
[1] = molecular target: recombinant human FAPα (rhFAPα) (Homo sapiens (Human), UniProt Q12884); test: FAPα enzymatic exopeptidase (dipeptidase) activity assay, Z-Gly-Pro-AMC; assay type: biochemical; details: for inhibition at 1 µM: 1 μM test compound, exopeptidase, Table 3B, read-out: rhFAPα (% exo inh @ 1 μM)
[2] = molecular target: recombinant human DPPIV (rhDPPIV) (Homo sapiens (Human), UniProt P27487); test: DPPIV enzymatic activity assay; assay type: biochemical; details: Table 3B
Chain of recombinant human DPPIV (rhDPPIV) (P27487 whole entry): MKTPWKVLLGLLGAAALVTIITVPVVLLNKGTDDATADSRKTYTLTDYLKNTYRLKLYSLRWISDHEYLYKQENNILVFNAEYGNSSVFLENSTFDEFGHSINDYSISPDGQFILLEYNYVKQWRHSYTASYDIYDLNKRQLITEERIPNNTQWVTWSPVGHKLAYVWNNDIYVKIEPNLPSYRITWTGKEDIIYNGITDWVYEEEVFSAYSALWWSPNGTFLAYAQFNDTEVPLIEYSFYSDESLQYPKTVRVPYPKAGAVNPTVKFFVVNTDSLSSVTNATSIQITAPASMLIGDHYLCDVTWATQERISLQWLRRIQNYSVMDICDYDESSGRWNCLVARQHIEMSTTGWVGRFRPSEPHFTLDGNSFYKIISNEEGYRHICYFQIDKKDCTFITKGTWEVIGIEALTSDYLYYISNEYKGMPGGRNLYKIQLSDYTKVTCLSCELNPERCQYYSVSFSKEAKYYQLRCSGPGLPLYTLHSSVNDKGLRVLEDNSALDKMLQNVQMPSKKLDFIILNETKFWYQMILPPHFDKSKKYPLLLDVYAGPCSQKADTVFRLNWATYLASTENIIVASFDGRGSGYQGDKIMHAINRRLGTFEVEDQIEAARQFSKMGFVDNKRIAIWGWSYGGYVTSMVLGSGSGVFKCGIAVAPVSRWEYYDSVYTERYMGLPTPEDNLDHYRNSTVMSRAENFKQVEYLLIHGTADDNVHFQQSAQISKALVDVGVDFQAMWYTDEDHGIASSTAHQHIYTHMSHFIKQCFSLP

[3] = molecular target: recombinant human DPP9 (rhDPP9) (Homo sapiens (Human), UniProt Q86TI2); test: Inhibition of DPP9 activity, 10 ng rhDPP9, H-Gly-Pro-AMC; assay type: biochemical; details: Table 3B
Chain of recombinant human DPP9 (rhDPP9) (Q86TI2 whole entry): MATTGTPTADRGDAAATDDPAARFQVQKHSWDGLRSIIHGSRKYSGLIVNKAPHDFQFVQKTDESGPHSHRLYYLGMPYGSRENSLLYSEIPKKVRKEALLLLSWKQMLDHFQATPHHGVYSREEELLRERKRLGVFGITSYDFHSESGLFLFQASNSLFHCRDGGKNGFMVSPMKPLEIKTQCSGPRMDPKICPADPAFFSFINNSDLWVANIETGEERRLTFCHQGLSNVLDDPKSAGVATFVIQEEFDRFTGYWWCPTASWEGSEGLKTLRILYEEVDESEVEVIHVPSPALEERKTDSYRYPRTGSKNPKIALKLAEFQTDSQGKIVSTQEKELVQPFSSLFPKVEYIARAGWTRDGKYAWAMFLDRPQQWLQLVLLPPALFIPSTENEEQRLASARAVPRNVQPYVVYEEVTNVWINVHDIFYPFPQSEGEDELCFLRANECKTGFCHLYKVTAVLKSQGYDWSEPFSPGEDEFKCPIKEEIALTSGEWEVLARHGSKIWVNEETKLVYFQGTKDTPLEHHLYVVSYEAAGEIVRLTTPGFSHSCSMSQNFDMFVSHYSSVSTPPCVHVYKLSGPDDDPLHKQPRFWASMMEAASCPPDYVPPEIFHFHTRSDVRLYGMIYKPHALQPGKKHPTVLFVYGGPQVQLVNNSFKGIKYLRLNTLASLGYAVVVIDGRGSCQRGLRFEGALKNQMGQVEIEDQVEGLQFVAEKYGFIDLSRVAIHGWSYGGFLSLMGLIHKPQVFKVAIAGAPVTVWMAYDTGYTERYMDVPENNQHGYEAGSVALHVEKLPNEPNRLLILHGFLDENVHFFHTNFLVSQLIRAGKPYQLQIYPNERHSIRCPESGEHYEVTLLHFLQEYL

[4] = tested on: human AML cell line MV4-11; test: Cytotoxicity assay in human leukemia cell lines (Cell-Titer Glo); details: Homo sapiens, MV4-11, 48 h, read-out: MV4-11 viability IC50, μM
[5] = molecular target: recombinant human PREP (rhPREP) (Homo sapiens (Human), UniProt P48147); test: PREP enzymatic activity assay; assay type: biochemical; details: Table 3B
Chain of recombinant human PREP (rhPREP) (P48147 whole entry): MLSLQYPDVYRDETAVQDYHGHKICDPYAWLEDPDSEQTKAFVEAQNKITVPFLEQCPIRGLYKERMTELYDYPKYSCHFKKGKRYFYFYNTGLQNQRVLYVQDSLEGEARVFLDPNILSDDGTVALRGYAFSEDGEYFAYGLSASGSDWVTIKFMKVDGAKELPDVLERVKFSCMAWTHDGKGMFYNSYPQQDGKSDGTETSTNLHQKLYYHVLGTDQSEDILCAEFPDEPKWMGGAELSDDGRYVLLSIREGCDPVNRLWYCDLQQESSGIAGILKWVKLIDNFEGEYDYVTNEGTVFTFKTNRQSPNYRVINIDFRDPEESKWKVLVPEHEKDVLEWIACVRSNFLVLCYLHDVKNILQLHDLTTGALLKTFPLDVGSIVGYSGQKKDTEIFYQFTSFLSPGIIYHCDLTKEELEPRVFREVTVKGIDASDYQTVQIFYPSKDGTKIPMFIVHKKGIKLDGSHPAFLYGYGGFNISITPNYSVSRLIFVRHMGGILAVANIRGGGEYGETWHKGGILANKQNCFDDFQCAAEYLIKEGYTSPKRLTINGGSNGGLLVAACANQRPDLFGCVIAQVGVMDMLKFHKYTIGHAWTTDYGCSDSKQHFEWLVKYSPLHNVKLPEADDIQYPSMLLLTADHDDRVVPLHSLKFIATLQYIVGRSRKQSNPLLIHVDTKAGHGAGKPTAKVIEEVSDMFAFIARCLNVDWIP

Chain of recombinant human FAPα (rhFAPα) (Q12884 whole entry): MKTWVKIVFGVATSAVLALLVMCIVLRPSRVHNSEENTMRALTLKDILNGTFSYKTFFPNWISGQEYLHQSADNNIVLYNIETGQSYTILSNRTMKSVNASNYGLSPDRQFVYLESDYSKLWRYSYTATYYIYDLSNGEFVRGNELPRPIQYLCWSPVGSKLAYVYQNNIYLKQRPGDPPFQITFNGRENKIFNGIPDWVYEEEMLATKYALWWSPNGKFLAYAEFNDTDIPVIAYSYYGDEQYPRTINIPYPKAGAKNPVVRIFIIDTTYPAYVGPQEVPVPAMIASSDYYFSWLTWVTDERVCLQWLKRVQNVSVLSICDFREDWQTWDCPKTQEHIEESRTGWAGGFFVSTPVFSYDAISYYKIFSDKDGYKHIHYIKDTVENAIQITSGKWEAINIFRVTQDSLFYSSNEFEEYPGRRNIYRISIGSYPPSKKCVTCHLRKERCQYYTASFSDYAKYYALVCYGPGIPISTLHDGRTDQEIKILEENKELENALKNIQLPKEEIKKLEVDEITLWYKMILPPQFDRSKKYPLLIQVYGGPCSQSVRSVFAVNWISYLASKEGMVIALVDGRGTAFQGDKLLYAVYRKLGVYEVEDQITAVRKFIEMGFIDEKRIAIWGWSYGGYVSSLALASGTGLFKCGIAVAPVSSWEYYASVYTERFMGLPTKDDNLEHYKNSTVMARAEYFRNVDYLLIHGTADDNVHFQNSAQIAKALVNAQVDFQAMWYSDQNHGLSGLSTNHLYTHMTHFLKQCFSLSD

IC50 [5] [nM]	Structure (SMILES)	inhibition at 1 µM [1] [%]	IC50 [2] [nM]	IC50 [3] [nM]	IC50 [4] [µM]	IC50 [1] [nM]
	N#C[C@@H]1CC(F)(F)CN1C(=O)CNC(=O)c1ccnc2ccc(-c3ccccc3)cc12 [Compound 1, (S)—N-(2-(2-cyano-4,4-difluoropyrrolidin-1-yl)-2-oxoethyl)-6-phenylquinoline-4-carboxamide]	> 50	> 10000			
	N#C[C@@H]1CC(F)(F)CN1C(=O)CNC(=O)c1ccnc2ccc(-c3ccc4cc(Cl)ccc4c3)cc12 [Compound 3, (S)-6-(6-chloronaphthalen-2-yl)-N-(2-(2-cyano-4,4-difluoropyrrolidin-1-yl)-2-oxoethyl)quinoline-4-carboxamide]		1000 to 10000	< 1000	3 to 10	
	Cc1noc(C)c1-c1ccc2nccc(C(=O)NCC(=O)N3CC(F)(F)C[C@H]3C#N)c2c1 [Compound 4, (S)—N-(2-(2-cyano-4,4-difluoropyrrolidin-1-yl)-2-oxoethyl)-6-(3,5-dimethylisoxazol-4-yl)quinoline-4-carboxamide]	> 50	> 10000			
	N#C[C@@H]1CC(F)(F)CN1C(=O)CNC(=O)c1ccnc2ccc(-c3ccc4c(c3)CCC(=O)N4)cc12 [Compound 16, (S)—N-(2-(2-cyano-4,4-difluoropyrrolidin-1-yl)-2-oxoethyl)-2′-oxo-1′,2′,3′,4′-tetrahydro-[6,6′-biquinoline]-4-carboxamide]		1000 to 10000	< 1000	> 10	
	N#C[C@@H]1CC(F)(F)CN1C(=O)CNC(=O)c1ccnc2ccc(-c3ccc4c(c3)CCNC4=O)cc12 [Compound 18, (S)—N-(2-(2-cyano-4,4-difluoropyrrolidin-1-yl)-2-oxoethyl)-6-(1-oxo-1,2,3,4-tetrahydroisoquinolin-6-yl)quinoline-4-carboxamide]		< 1000	< 1000		
	N#C[C@@H]1CC(F)(F)CN1C(=O)CNC(=O)c1ccnc2ccc(/C=C/c3ccncc3)cc12 [Compound 19, (S,E)-N-(2-(2-cyano-4,4-difluoropyrrolidin-1-yl)-2-oxoethyl)-6-(2-(pyridin-4-yl)vinyl)quinoline-4-carboxamide]		1000 to 10000	< 1000	< 3	
	N#C[C@@H]1CC(F)(F)CN1C(=O)CNC(=O)c1ccnc2ccc(/C=C/c3cccnc3)cc12 [Compound 20]		> 10000	< 1000	3 to 10	
	N#C[C@@H]1CC(F)(F)CN1C(=O)CNC(=O)c1ccnc2ccc(/C=C/c3ccccn3)cc12 [Compound 21]		> 10000	< 1000		
	COC(=O)/C=C/c1ccc2nccc(C(=O)NCC(=O)N3CC(F)(F)C[C@H]3C#N)c2c1 [Compound 22]		> 10000	< 1000		
	Cc1ccc(-c2ccc3nccc(C(=O)NCC(=O)N4CC(F)(F)C[C@H]4C#N)c3c2)cn1 [Compound 23]	> 50		< 1000		< 1000
	N#C[C@@H]1CC(F)(F)CN1C(=O)CNC(=O)c1ccnc2ccc(-c3ccc4c(c3)OCCO4)cc12 [Compound 24]	> 50		< 1000		< 1000
	N#C[C@@H]1CC(F)(F)CN1C(=O)CNC(=O)c1ccnc2ccc(-c3ccc(C4CC4)nc3)cc12 [Compound 25]	> 50		< 1000		< 1000
	C[C@@H](NC(=O)c1ccnc2ccc(-c3ccc(Cl)cc3)cc12)C(=O)N1CC(F)(F)C[C@H]1C#N [Compound 26]	25 to 50	> 10000	< 1000		
	C[C@H](NC(=O)c1ccnc2ccc(-c3ccc(Cl)cc3)cc12)C(=O)N1CC(F)(F)C[C@H]1C#N [Compound 27]	< 25	> 10000	< 1000		
> 10000	CC(C)[C@@H](NC(=O)c1ccnc2ccc(-c3ccc(Cl)cc3)cc12)C(=O)N1CC(F)(F)C[C@H]1C#N [Compound 28]	< 25	> 10000	> 10000		
> 10000	CC(C)[C@H](NC(=O)c1ccnc2ccc(-c3ccc(Cl)cc3)cc12)C(=O)N1CC(F)(F)C[C@H]1C#N [Compound 29]	< 25	1000 to 10000	> 10000		
	COc1ccc(-c2ccc3nccc(C(=O)NCC(=O)N4CC(F)(F)C[C@H]4C#N)c3c2)cc1 [Compound 30]		1000 to 10000	< 1000	3 to 10	
	N#C[C@@H]1CC(F)(F)CN1C(=O)CNC(=O)c1ccnc2ccc(-c3ccc(OC(F)(F)F)cc3)cc12 [Compound 31]		> 10000	< 1000		
	CN1CCN(Cc2ccc(-c3ccc4nccc(C(=O)NCC(=O)N5CC(F)(F)C[C@H]5C#N)c4c3)cc2)CC1 [Compound 32]	> 50	> 10000			
	COc1ccc(-c2ccc3nccc(C(=O)NCC(=O)N4CC(F)(F)C[C@H]4C#N)c3c2)cn1 [Compound 33]	> 50		< 1000		< 1000
	CC(C)Oc1ccc(-c2ccc3nccc(C(=O)NCC(=O)N4CC(F)(F)C[C@H]4C#N)c3c2)cn1 [Compound 34]	> 50		< 1000		< 1000
	COCCOc1ccc(-c2ccc3nccc(C(=O)NCC(=O)N4CC(F)(F)C[C@H]4C#N)c3c2)cc1 [Compound 35]	> 50		< 1000		< 1000
	COCCOc1ccc(-c2ccc3nccc(C(=O)NCC(=O)N4CC(F)(F)C[C@H]4C#N)c3c2)cn1 [Compound 36]		> 10000	< 1000		

IC50 [5] [nM]	Structure (SMILES)	inhibition at 1 µM [1] [%]	IC50 [2] [nM]	IC50 [3] [nM]	IC50 [4] [µM]	IC50 [1] [nM]
	N#C[C@@H]1CC(F)(F)CN1C(=O)CNC(=O)c1ccnc2ccc(/C=C/c3ccc4c(c3)CCC(=O)N4)cc12 [Compound 37]	> 50		< 1000		< 1000
	N#C[C@@H]1CC(F)(F)CN1C(=O)CNC(=O)c1ccnc2ccc(/C=C/c3ccc4c(c3)CCNC4=O)cc12 [Compound 38]	> 50		< 1000	> 10	< 1000
	CC(=O)Nc1ccc(-c2ccc3nccc(C(=O)NCC(=O)N4CC(F)(F)C[C@H]4C#N)c3c2)cc1 [Compound 97]		> 10000	< 1000		
	CC(=O)Nc1cccc(-c2ccc3nccc(C(=O)NCC(=O)N4CC(F)(F)C[C@H]4C#N)c3c2)c1 [Compound 98]		> 10000	< 1000		
	CC(=O)Nc1ccccc1-c1ccc2nccc(C(=O)NCC(=O)N3CC(F)(F)C[C@H]3C#N)c2c1 [Compound 99]	> 50	> 10000			
	CNC(=O)c1ccc(-c2ccc3nccc(C(=O)NCC(=O)N4CC(F)(F)C[C@H]4C#N)c3c2)cc1 [Compound 100]		> 10000	< 1000		
	N#C[C@@H]1CC(F)(F)CN1C(=O)CNC(=O)c1ccnc2ccc(-c3ccc4[nH]ncc4c3)cc12 [Compound 101]	> 50		< 1000		< 1000
	CNC(=O)c1cccc(-c2ccc3nccc(C(=O)NCC(=O)N4CC(F)(F)C[C@H]4C#N)c3c2)c1 [Compound 102]		> 10000	< 1000		
	N#C[C@@H]1CC(F)(F)CN1C(=O)CNC(=O)c1ccnc2ccc(-c3c[nH]c4ccccc34)cc12 [Compound 103]	> 50		< 1000		< 1000
	N#C[C@@H]1CC(F)(F)CN1C(=O)CNC(=O)c1ccnc2ccc(-c3ccc4c(c3)CNC4=O)cc12 [Compound 104]		< 1000	< 1000		
	N#C[C@@H]1CC(F)(F)CN1C(=O)CNC(=O)c1ccnc2ccc(/C=C/c3ccc4ncccc4c3)cc12 [Compound 105]	> 50				
	N#C[C@@H]1CC(F)(F)CN1C(=O)CNC(=O)c1ccnc2ccc(-c3ccc4c(c3)CC(=O)N4)cc12 [Compound 106]	> 50		< 1000		< 1000
	N#C[C@@H]1CC(F)(F)CN1C(=O)CNC(=O)c1ccnc2ccc(-c3ccc4c(c3)C(=O)NCC4)cc12 [Compound 107]	> 50	1000 to 10000	< 1000		< 1000
	N#C[C@@H]1CC(F)(F)CN1C(=O)CNC(=O)c1ccnc2ccc(-c3cccc4c3CCC(=O)N4)cc12 [Compound 108]		> 10000	< 1000		
	N#C[C@@H]1CC(F)(F)CN1C(=O)CNC(=O)c1ccnc2ccc(-c3cccc4c3CCNC4=O)cc12 [Compound 109]		> 10000	< 1000		
	CN1C(=O)CCc2cc(-c3ccc4nccc(C(=O)NCC(=O)N5CC(F)(F)C[C@H]5C#N)c4c3)ccc21 [Compound 110]		> 10000	< 1000	< 3	
	CN1CCc2cc(-c3ccc4nccc(C(=O)NCC(=O)N5CC(F)(F)C[C@H]5C#N)c4c3)ccc2C1=O [Compound 111]	> 50	1000 to 10000	< 1000		< 1000
	N#C[C@@H]1CC(F)(F)CN1C(=O)CNC(=O)c1ccnc2ccc(/C=C/c3ccc4[nH]ncc4c3)cc12 [Compound 112]	> 50	< 1000	< 1000		< 1000
	N#C[C@@H]1CC(F)(F)CN1C(=O)CNC(=O)c1ccnc2ccc(-c3ccc4c(c3)CCCN4)cc12 [Compound 113]	> 50	1000 to 10000	< 1000		< 1000
	N#C[C@@H]1CC(F)(F)CN1C(=O)CNC(=O)c1ccnc2ccc(-c3ccc4c(c3)CCNC4)cc12 [Compound 114]	> 50	> 10000			
	N#C[C@@H]1CC(F)(F)CN1C(=O)CNC(=O)c1ccnc2ccc(/C=C/c3ccc4c(c3)CCN4)cc12 [Compound 115]		> 10000	< 1000		
	CNC(=O)c1ccc(-c2ccc3nccc(C(=O)NCC(=O)N4CC(F)(F)C[C@H]4C#N)c3c2)cc1F [Compound 116]		> 10000	< 1000		
